According to US6407103B2, “Indeno [1,2-c] pyrazol-4-ones and their uses” (Bristol-Myers Squibb Pharma Company, priority 1998, dated 2002):
Counter-ions that a name gives are not always drawn.

In the case of `CC1CN(c2ccc(-c3[nH]nc4c3C(=O)c3c(NC(=O)NN5CCOCC5)cccc3-4)cc2)CCN1` (stereo not shown) (as salt: TFA) [Example CCXXXVII, 3-(4-(3-methylpiperazino)phenyl)-5-(morpholinocarbamoylamino)indeno[1,2-c]pyrazol-4-one], the melting point is reported as 230 °C. For `C[C@@H]1CN(c2ccc(-c3[nH]nc4c3C(=O)c3c(NC(=O)NN5CCOCC5)cccc3-4)cc2)C[C@H](C)N1` (as salt: TFA) [Example CCXXXVIII, 3-(4-(cis-3,5-dimethylpiperazino)phenyl)-5-(morpholinocarbamoylamino)indeno[1,2-c]pyrazol-4-one], the melting point was 237 °C. `CN1CCN(C(=O)c2ccc(-c3[nH]nc4c3C(=O)c3c(NC(=O)NN5CCOCC5)cccc3-4)s2)CC1` (as salt: TFA) [Example CL, 3-(5-(4-methylpiperazinocarbonyl)-2-thienyl)-5-(morpholinocarbamoylamino)indeno[1,2-c]pyrazol-4-one] gave a melting point of 186 °C. Molecule `CCN1CCN(C(=O)c2ccc(-c3[nH]nc4c3C(=O)c3c(NC(=O)NN5CCOCC5)cccc3-4)s2)CC1` (as salt: TFA) [Example CLI, 3-(5-(4-ethylpiperazinocarbonyl)-2-thienyl)-5-(morpholinocarbamoylamino)indeno[1,2-c]pyrazol-4-one] has a melting point of 186 °C. In the case of `O=C(Nc1cccc2c1C(=O)c1c-2n[nH]c1-c1ccc(C(=O)N2CCN(CCO)CC2)s1)NN1CCOCC1` (as salt: TFA) [Example CLII, 3-(5-(4-(2-hydroxyethyl)piperazinocarbonyl)-2-thienyl)-5-(morpholinocarbamoylamino)indeno[1,2-c]pyrazol-4-one], the melting point is reported as 186 °C. `O=C(Nc1cccc2c1C(=O)c1c-2n[nH]c1-c1ccc(C(=O)N2CCN(CC3CC3)CC2)s1)NN1CCOCC1` (as salt: TFA) [Example CLIII, 3-(5-(4-(cyclopropylmethyl)piperazinocarbonyl)-2-thienyl)-5-(morpholinocarbamoylamino)indeno[1,2-c]pyrazol-4-one] showed a melting point of 211 °C. `CC(C)(C)OC(=O)N1CCN(C(=O)c2ccc(-c3[nH]nc4c3C(=O)c3c(NC(=O)NN5CCOCC5)cccc3-4)s2)CC1` (as salt: TFA) [Example CLIV, 3-(5-(4-(t-butoxycarbonyl)piperazinocarbonyl)-2-thienyl)-5-(morpholinocarbamoylamino)indeno[1,2-c]pyrazol-4-one] gave a melting point of 225 °C. For `O=C(Nc1cccc2c1C(=O)c1c-2n[nH]c1-c1ccc(C(=O)N2CCC(N3CCCC3)CC2)s1)NN1CCOCC1` (as salt: TFA) [Example CLIX, 3-(5-(4-pyrrolidinopiperidinocarbonyl)-2-thienyl)-5-(morpholinocarbamoylamino)indeno[1,2-c]pyrazol-4-one], the melting point was 228 °C. Molecule `O=C(Nc1cccc2c1C(=O)c1c-2n[nH]c1-c1ccc(C(=O)N2CCN(c3ccccn3)CC2)s1)NN1CCOCC1` (as salt: TFA) [Example CLV, 3-(5-(4-(2-pyridyl)piperazinocarbonyl)-2-thienyl)-5-(morpholinocarbamoylamino)indeno[1,2-c]pyrazol-4-one] has a melting point of 202 °C. For `O=C(Nc1cccc2c1C(=O)c1c-2n[nH]c1-c1ccc(C(=O)[C@]23CN[C@H](CN2)C3)s1)NN1CCOCC1` (as salt: TFA) [Example CLVI, 3-(5-(((1S,4S)-(+)-2,5-diazabicyclo[2.2.1]heptyl)carbonyl)-2-thienyl)-5-(morpholinocarbamoylamino)indeno [1,2-c]pyrazol-4-one], the melting point was > 300 °C. With `CN1C[C@@H]2C[C@@]1(C(=O)c1ccc(-c3[nH]nc4c3C(=O)c3c(NC(=O)NN5CCOCC5)cccc3-4)s1)CN2` (as salt: TFA) [Example CLVII, 3-(5-(((1S,4S)-(+)-2-methyl-2,5-diazabicyclo[2.2.1]heptyl)carbonyl)-2-thienyl)-5-(morpholinocarbamoylamino)indeno[1,2-c]pyrazol-4-one] the melting point was 244 °C. For `CN(C)C1CCN(C(=O)c2ccc(-c3[nH]nc4c3C(=O)c3c(NC(=O)NN5CCOCC5)cccc3-4)s2)CC1` (as salt: TFA) [Example CLVIII, 3-(5-(4-(N,N-dimethylamino)piperidinocarbonyl)-2-thienyl)-5-(morpholinocarbamoylamino)indeno[1,2-c]pyrazol-4-one], the melting point was 185 °C. For `O=C(Nc1cccc2c1C(=O)c1c-2n[nH]c1-c1ccc(C(=O)NC2CCCCC2)s1)NN1CCOCC1` (as salt: TFA) [Example CLXI, 3-(5-cyclohexylaminocarbonyl-2-thienyl)-5-(morpholinocarbamoylamino)indeno[1,2-c]pyrazol-4-one], the melting point was 264 °C. `O=C(Nc1cccc2c1C(=O)c1c-2n[nH]c1-c1ccc(C(=O)NC2CCNCC2)s1)NN1CCOCC1` (as salt: TFA) [Example CLXII, 3-(5-(4-piperidylaminocarbonyl)-2-thienyl)-5-(morpholinocarbamoylamino)indeno[1,2-c]pyrazol-4-one] gave a melting point of 224 °C. For `CN(C)C1CCCN(C(=O)c2ccc(-c3[nH]nc4c3C(=O)c3c(NC(=O)NN5CCOCC5)cccc3-4)s2)C1` (stereo not shown) (as salt: TFA) [Example CLXV, 3-(5-(3-(N,N-dimethylamino)piperidinocarbonyl)-2-thienyl)-5-(morpholinocarbamoylamino)indeno[1,2-c]pyrazol-4-one], the melting point was > 300 °C. With `O=C(Nc1cccc2c1C(=O)c1c-2n[nH]c1-c1ccc(C(=O)NC2CCCNC2)s1)NN1CCOCC1` (stereo not shown) (as salt: TFA) [Example CLXVIII, 3-(5-((3-piperidyl)aminocarbonyl)-2-thienyl)-5-(morpholinocarbamoylamino)indeno[1,2-c]pyrazol-4-one] the melting point was > 300 °C. In the case of `NC1CCCC(NC(=O)c2ccc(-c3[nH]nc4c3C(=O)c3c(NC(=O)NN5CCOCC5)cccc3-4)s2)C1` (stereo not shown) (as salt: TFA) [Example CLXX, 3-(5-((3-aminocyclohexyl)aminocarbonyl)-2-thienyl)-5-(morpholinocarbamoylamino)indeno[1,2-c]pyrazol-4-one], the melting point is reported as > 300 °C. With `CC(C)(C)OC(=O)NC1CCCC(NC(=O)c2ccc(-c3[nH]nc4c3C(=O)c3c(NC(=O)NN5CCOCC5)cccc3-4)s2)C1` (stereo not shown) (as salt: TFA) [Example CLXXI, 3-(5-((3-(t-butoxycarbonylamino)cyclohexyl)aminocarbonyl)-2-thienyl)-5-(morpholinocarbamoylamino)indeno[1,2-c]pyrazol-4-one] the melting point was > 300 °C. With `CN(C)CC1CCCCN1C(=O)c1ccc(-c2[nH]nc3c2C(=O)c2c(NC(=O)NN4CCOCC4)cccc2-3)s1` (stereo not shown) (as salt: TFA) [Example CLXXII, 3-(5-(2-(N,N-dimethylaminomethyl)piperidinocarbonyl)-2-thienyl)-5-(morpholinocarbamoylamino)indeno[1,2-c]pyrazol-4-one] the melting point was > 300 °C. Molecule `CCN(CC)CC1CCCCN1C(=O)c1ccc(-c2[nH]nc3c2C(=O)c2c(NC(=O)NN4CCOCC4)cccc2-3)s1` (stereo not shown) (as salt: TFA) [Example CLXXIII, 3-(5-(2-(N,N-diethylaminomethyl)piperidinocarbonyl)-2-thienyl)-5-(morpholinocarbamoylamino)indeno[1,2-c]pyrazol-4-one] has a melting point of 210 °C. In the case of `O=C(Nc1cccc2c1C(=O)c1c-2n[nH]c1-c1ccc(C(=O)N2CCCC2)s1)NN1CCOCC1` (as salt: TFA) [Example CLXXIV, 3-(5-pyrrolidinocarbonyl-2-thienyl)-5-(morpholinocarbamoylamino)indeno[1,2-c]pyrazol-4-one], the melting point is reported as > 300 °C. In the case of `CN(C(=O)OC(C)(C)C)[C@H]1CCN(C(=O)c2ccc(-c3[nH]nc4c3C(=O)c3c(NC(=O)NN5CCOCC5)cccc3-4)s2)C1` (as salt: TFA) [Example CLXXIX, 3-(5-(3(S)-(N-methyl-t-butoxycarbonylamino)pyrrolidinocarbonyl)-2-thienyl)-5-(morpholinocarbamoylamino)indeno[1,2-c]pyrazol-4-one], the melting point is reported as > 300 °C. Molecule `NC1CCN(C(=O)c2ccc(-c3[nH]nc4c3C(=O)c3c(NC(=O)NN5CCOCC5)cccc3-4)s2)C1` (stereo not shown) (as salt: TFA) [Example CLXXV, 3-(5-(3-aminopyrrolidinocarbonyl)-2-thienyl)-5-(morpholinocarbamoylamino)indeno[1,2-c]pyrazol-4-one] has a melting point of 201 °C. Molecule `CC(=O)N[C@H]1CCN(C(=O)c2ccc(-c3[nH]nc4c3C(=O)c3c(NC(=O)NN5CCOCC5)cccc3-4)s2)C1` (as salt: TFA) [Example CLXXVII, 3-(5-(3(S)-acetamidopyrrolidinocarbonyl)-2-thienyl)-5-(morpholinocarbamoylamino)indeno[1,2-c]pyrazol-4-one] has a melting point of 264 °C. For `CC(=O)N(C)[C@H]1CCN(C(=O)c2ccc(-c3[nH]nc4c3C(=O)c3c(NC(=O)NN5CCOCC5)cccc3-4)s2)C1` (as salt: TFA) [Example CLXXVIII, 3-(5-(3(S)-(N-methylacetamido)pyrrolidinocarbonyl)-2-thienyl)-5-(morpholinocarbamoylamino)indeno[1,2-c]pyrazol-4-one], the melting point was > 300 °C. Work on `CN(C)C1CCN(C(=O)c2ccc(-c3[nH]nc4c3C(=O)c3c(NC(=O)NN5CCOCC5)cccc3-4)s2)C1` (stereo not shown) (as salt: TFA) [Example CLXXX, 3-(5-(3-(N,N-dimethylamino)pyrrolidinocarbonyl)-2-thienyl)-5-(morpholinocarbamoylamino)indeno[1,2-c]pyrazol-4-one] yielded a melting point of 216 °C. In the case of `CN(C)[C@@H]1CCN(C(=O)c2ccc(-c3[nH]nc4c3C(=O)c3c(NC(=O)NN5CCOCC5)cccc3-4)s2)C1` (as salt: TFA) [Example CLXXXI, 3-(5-(3(R)-(N,N-dimethylamino)pyrrolidinocarbonyl)-2-thienyl)-5-(morpholinocarbamoylamino)indeno[1,2-c]pyrazol-4-one], the melting point is reported as 265 °C. `CN(C)[C@H]1CCN(C(=O)c2ccc(-c3[nH]nc4c3C(=O)c3c(NC(=O)NN5CCOCC5)cccc3-4)s2)C1` (as salt: TFA) [Example CLXXXII, 3-(5-(3(S)-(N,N-dimethylamino)pyrrolidinocarbonyl)-2-thienyl)-5-(morpholinocarbamoylamino)indeno[1,2-c]pyrazol-4-one] gave a melting point of 264 °C.
